From patent US20240108634A1, “COMPOSITIONS AND METHODS FOR INHIBITING YAP” (The United States Government as represented by the …, priority 2021, published 2024)

Tests used:
[1] = target: T1, YAP1 (residues 50-171) / TEAD1 (residues 194-411) association (Homo sapiens, UniProt P46937); assay: In vitro GST pull-down of His-tagged YAP1 with GST-TEAD1; assay type: binding; details: concentration-dependent
T1 construct: His; made in house
Protocol: FIGS. 1A-G show the identification of a YAP1-TEAD1 binding interface inhibitor. […] The Gal4 DBD was fused to residues 50-171 of human YAP1 and the Gal4 AD was fused to residues 194-411 of human TEAD1. These fusions were expressed in yeast containing reporters harboring Gal4 upstream activating sequences (UAS). […] Yeast expressing either p53-DBD and SV40 large T antigen-AD fusions or YAP1-DBD and TEAD1-AD fusions were plated on selective media. Compounds were pinned onto the plate surfaces by robotic transfer and subsequently examined for halo formation (indicated by red circles). […] Pull-down products were analyzed by SDS-PAGE and silver staining. […] Raw binding sensorgrams obtained at each concentration were fitted to a 1:1 binding model and Kon, Koff and KD were calculated by simultaneous non-linear regression analyses.
Results. […] To examine the mechanism by which NSC682769 inhibits YAP, the ability of full-length human YAP1 to bind to NSC682769 cross-linked affinity beads prepared using a photo-cross-linking procedure (Holmes B, et al. (2016) J Biol Chem 291: 14146-14159) was determined. Recombinant YAP was incubated with control, IRES-J007 (negative control), or NSC682769-coupled beads and binding analyzed by immunoblotting for YAP (FIG. 1F). […]

[2] = tested on: LN229 xenografts; assay: Subcutaneous LN229 xenografts in SCID mice; assay type: in vivo
Excerpt: Protein levels were quantified by Western analyses (inset; representative immunoblots of YAP and actin levels from tumors from the indicated tumor treatment groups), and normalized to actin levels of harvested tumors from mice with the corresponding treatments as indicated and described in Materials and Methods. […] Scale bar, 20 μm. […] Data are expressed as the number of positive apoptotic bodies (brown, indicated by arrows) divided by high power field (hpf; 10-12 hpf/tumor). Values are means+S.D., *, P<0.05. Scale bar, 20 μm.
(§1) Animal studies. Xenografts of LN229 cells were performed in 4-6-week-old female C.B.-17-scid (Taconic) mice as previously described (Holmes B, et al. (2016) J Biol Chem 291: 14146-14159). Tumors were harvested at autopsy for immunoblot analysis. Sections of paraffin-embedded tumors on slides were processed for immunohistochemistry as previously described (Benavides-Serrato A, et al. (2017) PLoS One 12: e0176599). For GEMM studies, double transgenic GFAP-EGFRvIII; GFAP-Cre/Rictor^loxP/loxP mice as previously described were used (Bashir T, et al. (2012) PLoS One 7: e47741). Determinations of blood plasma and brain concentrations of NSC682769 following IV administration were performed in C57/BL6 mice.
NSC682769 inhibits GBM tumor growth in xenografted mice. To examine the effects of NSC682769 in vivo, the ability of the compound to inhibit the growth of LN229 xenografted tumors implanted subcutaneously in SCID mice was tested. Following implantation, when tumors reached ˜200 mm^3, mice were randomized into treatment groups receiving vehicle, 5 mg/kg/d and 20 mg/kg/d of NSC682769. […] The relative expression level of YAP was reduced in harvested tumors from NSC682769 treated animals (5 mg/kg; 20 mg/kg) as compared to vehicle treated animals consistent with the observed effects of the inhibitor in vitro (FIG. 5D; see also FIG. 3). Expression of the YAP-dependent genes CTGF and Cyr61 was reduced in inhibitor treated groups relative to vehicle (FIG. 5E).

[3] = tested on: GFAP-EGFRvIII×GFAP-Cre+/Rictor glioma GEMM; assay: Survival of GFAP-EGFRvIII; GFAP-Cre/Rictor transgenic glioma mice; assay type: in vivo
Protocol: FIGS. 9A-B show GEMM survival and brain/blood plasma concentrations following treatment with NSC682769. […] C57/BL6 mice were administered NSC682769 IV and mean brain and plasma concentrations were determined via HPLC analyses. (n=5).
as §1
NSC682769 increases survival of a glioma GEMM and penetrates the blood-brain barrier. NSC682769 was evaluated in double transgenic GFAP-EGFRvIII; GFAP-Cre/Rictor^loxP/loxP mice which overexpress both the mutant constitutively active EGFRvIII allele and the mTORC2 scaffolding component Rictor. […] To assess therapeutic activity, the effect of twice-weekly 5 or 20 mg/kg NSC682769 treatments was measured on survival.

T1 sequence (P46937 50-171): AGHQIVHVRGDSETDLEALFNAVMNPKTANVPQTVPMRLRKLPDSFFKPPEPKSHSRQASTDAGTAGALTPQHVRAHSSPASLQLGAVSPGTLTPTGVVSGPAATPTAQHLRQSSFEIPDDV

Compound: COc1ccc(-c2cc(-c3ccccc3)nc3c2CC(=O)Nc2ccccc2-3)cc1OC [NSC682769]
- Inhibition of His-tagged YAP1 and GST-TEAD1 association [1]: marked inhibition
- Tumor growth delay ([2]; 5 mg/kg/d): 11 days
- Tumor growth inhibition at end of dosing period ([2]; 5 mg/kg/d): 66%
- Relative expression level of YAP in harvested tumors ([2]; 5 mg/kg, 20 mg/kg versus vehicle): reduced
- Tumor growth delay ([2]; 20 mg/kg/d): 16 days
- Tumor growth inhibition at end of dosing period ([2]; 20 mg/kg/d): 83%
- Overall survival relative to vehicle ([2]; 5 and 20 mg/kg/d): markedly extended
- Harvested tumor weights ([2]; both dosing regimens versus vehicle): significant reduction
- Apoptosis by TUNEL staining of tumors ([2]; both dosing regimens, day 12): enhancement of apoptotic death
- Ki-67 staining of harvested tumors ([2]; day 12 after start of treatment): reduction
- Expression of CTGF and Cyr61 in harvested xenografts ([2]; treated groups versus vehicle): reduced
- Mice surviving to 20 weeks ([3]; 5 mg/kg twice weekly): 60%
- Mice surviving at 20 weeks ([3]; 20 mg/kg twice weekly): more than 75%
